In US9695155B2, “Herbicidal substituted pyrimidinyloxy benzene compounds” (E. I. DU PONT DE NEMOURS AND COMPANY, priority 2013, dated 2017):

Tests used:
wheat = test: Test A postemergence; format: in vivo, Triticum aestivum; conditions: 0 to 100 scale, 0 no effect, 100 complete control
Procedure, shortened: (§1)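 Greenhouse pot test, loam/sand soil. Formulation: non-phytotoxic solvent mix plus surfactant. Pre: directed spray onto soil after sowing. Post: plants at 1–2 leaf, 2–10 cm. Rated visually vs untreated controls at ~10 d, 0 (no effect) to 100 (complete control).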

Italian ryegrass [1] = test: Test A postemergence; format: in vivo, Lolium multiflorum; conditions: 0 to 100 scale, 0 no effect, 100 complete control
Text: (§2) Seeds of plant species selected from barnyardgrass (Echinochloa crus-galli), kochia (Kochia scoparia), ragweed (common ragweed, Ambrosia elatior), Italian ryegrass (Lolium multiflorum), large (Lg) crabgrass (Digitaria sanguinalis), giant foxtail (Setaria faberii), morningglory (Ipomoea spp.), pigweed (Amaranthus retroflexus), velvetleaf (Abutilon theophrasti), wheat (Triticum aestivum), and corn (Zea mays) were planted into a blend of loam soil and sand and treated preemergence with a directed soil spray using test chemicals formulated in a non-phytotoxic solvent mixture which included a surfactant.
(§3) At the same time, plants selected from these crop and weed species and also blackgrass (Alopecurus myosuroides), and galium (catchweed bedstraw, Galium aparine) were planted in pots containing the same blend of loam soil and sand and treated with postemergence applications of test chemicals formulated in the same manner. Plants ranged in height from 2 to 10 cm and were in the one- to two-leaf stage for the postemergence treatment. Treated plants and untreated controls were maintained in a greenhouse for approximately 10 days, after which time all treated plants were compared to untreated controls and visually evaluated for injury. Plant response ratings, summarized in Table A, are based on a 0 to 100 scale where 0 is no effect and 100 is complete control. A dash (-) response means no test result.

barnyardgrass [2] = test: Test B flooded paddy test; format: in vivo, Echinochloa crus-galli; conditions: Flood, 250 g ai/ha; 0 to 100 scale where 0 is no effect and 100 is complete control
Procedure, shortened: (§4)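 Evaluation is visual, against untreated controls, 13 to 15 days after treatment. Before treatment, plants reached the 2-leaf stage; pots were then flooded 3 cm deep, compound was added to the water, and that level was maintained. Ratings run 0 to 100, with 100 meaning complete control.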

barnyardgrass [3] = test: Test A postemergence; format: in vivo, Echinochloa crus-galli
Procedure, shortened: as §1

rice = test: Test B flooded paddy test; format: in vivo, Oryza sativa; conditions: Flood, 250 g ai/ha; 0 to 100 scale where 0 is no effect and 100 is complete control
Procedure, shortened: as §4

corn = test: Test A postemergence; format: in vivo, Zea mays
Procedure, shortened: as §1

kochia [4] = test: Test A preemergence; format: in vivo, Kochia scoparia; conditions: for Plant response rating, Kochia: 0 to 100 scale where 0 is no effect and 100 is complete control
Text: as §2, §3

giant foxtail [5] = test: Test A preemergence; format: in vivo, Setaria faberii; conditions: for Plant response rating, Foxtail, Giant: 0 to 100 scale where 0 is no effect and 100 is complete control
Procedure, shortened: as §1

ragweed [6] = test: Test A postemergence; format: in vivo, Ambrosia elatior; conditions: 0 to 100 scale, 0 no effect, 100 complete control
Procedure, shortened: as §1

barnyardgrass [7] = test: Test A preemergence; format: in vivo, Echinochloa crus-galli; conditions: for Plant response rating, Barnyardgrass: 0 to 100 scale where 0 is no effect and 100 is complete control
Procedure, shortened: as §1

blackgrass = test: Test A postemergence; format: in vivo, Alopecurus myosuroides
Text: as §2, §3

galium = test: Test A postemergence; format: in vivo, Galium aparine
Procedure, shortened: as §1

giant foxtail [8] = test: Test A postemergence; format: in vivo, Setaria faberii
Procedure, shortened: as §1

Italian ryegrass [9] = test: Test A preemergence; format: in vivo, Lolium multiflorum; conditions: for Plant response rating, Ryegrass, Italian: 0 to 100 scale where 0 is no effect and 100 is complete control
Text: as §2, §3

kochia [10] = test: Test A postemergence; format: in vivo, Kochia scoparia
Text: as §2, §3

sedge, umbrella = test: Test B flooded paddy test; format: in vivo, Cyperus difformis; conditions: Flood, 250 g ai/ha; 0 to 100 scale where 0 is no effect and 100 is complete control
Procedure, shortened: as §4

pigweed [11] = test: Test A preemergence; format: in vivo, Amaranthus retroflexus; conditions: for Plant response rating, Pigweed: 0 to 100 scale where 0 is no effect and 100 is complete control
Procedure, shortened: as §1

pigweed [12] = test: Test A postemergence; format: in vivo, Amaranthus retroflexus; conditions: 0 to 100 scale, 0 no effect, 100 complete control
Procedure, shortened: as §1

ragweed [13] = test: Test A preemergence; format: in vivo, Ambrosia elatior; conditions: for Plant response rating, Ragweed: 0 to 100 scale where 0 is no effect and 100 is complete control
Text: as §2, §3

Heteranthera limosa = test: Test B flooded paddy test; format: in vivo; conditions: Flood, 250 g ai/ha; 0 to 100 scale where 0 is no effect and 100 is complete control
Procedure, shortened: as §4

[14] = 31 g ai/ha, 0 to 100 scale, 0 no effect, 100 complete control
[15] = 125 g ai/ha, 0 to 100 scale, 0 no effect, 100 complete control
[16] = 31 g ai/ha, visual, approximately 10 days
[17] = 125 g ai/ha, 0 to 100 scale where 0 is no effect and 100 is complete control

NC(=O)c1cccc(Oc2ncc(Cl)cn2)c1-n1cc(C(F)(F)F)cn1 [Compound 278]
Plant response rating, Wheat (wheat; 31 g ai/ha): 0
Plant response rating, Wheat (wheat; 125 g ai/ha): 0
Plant response rating, Ryegrass, Italian (Italian ryegrass [1]; 31 g ai/ha): 0
Plant response rating, Ryegrass, Italian (Italian ryegrass [1]; 125 g ai/ha): 0
Plant response rating, Barnyardgrass (barnyardgrass [2]): 0
Plant response rating, Barnyardgrass (barnyardgrass [3]; [14]): 0
Plant response rating, Barnyardgrass (barnyardgrass [3]; [15]): 0
Plant response rating, Rice (rice): 0
Plant response rating, Corn (corn; [14]): 0
Plant response rating, Corn (corn; [15]): 0
Plant response rating, Kochia (kochia [4]; [16]): 0
Kochia plant response rating (0 to 100 scale) (kochia [4]; 125 g ai/ha): 0
Plant response rating, Foxtail, Giant (giant foxtail [5]; [16]): 0
Foxtail, Giant plant response rating (0 to 100 scale) (giant foxtail [5]; 125 g ai/ha): 0
Plant response rating, Ragweed (ragweed [6]; 31 g ai/ha): 0
Plant response rating, Ragweed (ragweed [6]; 125 g ai/ha): 10
Plant response rating, Barnyardgrass (barnyardgrass [7]; [16]): 0
Barnyardgrass plant response rating (0 to 100 scale, 0 is no effect, 100 is complete control) (barnyardgrass [7]; 125 g ai/ha): 0
Plant response rating, Blackgrass (blackgrass; [14]): 0
Plant response rating, Blackgrass (blackgrass; [15]): 0
Plant response rating, Galium (galium; [14]): 0
Plant response rating, Galium (galium; [15]): 10
Plant response rating, Foxtail, Giant (giant foxtail [8]; [14]): 0
Plant response rating, Foxtail, Giant (giant foxtail [8]; [15]): 0
Plant response rating, Ryegrass, Italian (Italian ryegrass [9]; [16]): 0
Ryegrass, Italian plant response rating (0 to 100 scale) (Italian ryegrass [9]; 125 g ai/ha): 0
Plant response rating, Kochia (kochia [10]; [14]): 0
Plant response rating, Kochia (kochia [10]; [15]): 0
Plant response rating, Sedge, Umbrella (sedge, umbrella): 0
Plant response rating, Pigweed (pigweed [11]; [16]): 0
Pigweed plant response rating (0 to 100 scale) (pigweed [11]; 125 g ai/ha): 10
Plant response rating, Pigweed (pigweed [12]; 31 g ai/ha): 0
Plant response rating, Pigweed (pigweed [12]; 125 g ai/ha): 10
Plant response rating, Ragweed (ragweed [13]; [16]): 0
Ragweed plant response rating (0 to 100 scale) (ragweed [13]; 125 g ai/ha): 0
Plant response rating, Ducksalad (Heteranthera limosa): 0

Fc1cccc(Oc2ncc(Cl)cn2)c1-n1cc(C2CCCC2)nn1 [Compound 106]
Plant response rating, Wheat (wheat; 31 g ai/ha): 0
Plant response rating, Ryegrass, Italian (Italian ryegrass [1]; 31 g ai/ha): 0
Plant response rating, Barnyardgrass (barnyardgrass [2]): 0
Plant response rating, Barnyardgrass (barnyardgrass [3]; [14]): 0
Plant response rating, Barnyardgrass (barnyardgrass [3]; [17]): 50
Plant response rating, Rice (rice): 0
Plant response rating, Corn (corn; [14]): 0
Plant response rating, Corn (corn; [17]): 20
Kochia plant response rating (0 to 100 scale) (kochia [4]; 31 g ai/ha): 0
Plant response rating, Kochia (kochia [4]; 125 g ai/ha): 0
Foxtail, Giant plant response rating (0 to 100 scale) (giant foxtail [5]; 31 g ai/ha): 30
Plant response rating, Foxtail, Giant (giant foxtail [5]; 125 g ai/ha): 70
Plant response rating, Ragweed (ragweed [6]; 31 g ai/ha): 20
Barnyardgrass plant response rating (0 to 100 scale) (barnyardgrass [7]; 31 g ai/ha): 0
Plant response rating, Barnyardgrass (barnyardgrass [7]; 125 g ai/ha): 40
Plant response rating, Blackgrass (blackgrass; [14]): 30
Plant response rating, Blackgrass (blackgrass; [17]): 50
Plant response rating, Galium (galium; [14]): 50
Plant response rating, Galium (galium; [17]): 70
Plant response rating, Foxtail, Giant (giant foxtail [8]; [14]): 50
Plant response rating, Foxtail, Giant (giant foxtail [8]; [17]): 70
Ryegrass, Italian plant response rating (0 to 100 scale) (Italian ryegrass [9]; 31 g ai/ha): 0
Plant response rating, Ryegrass, Italian (Italian ryegrass [9]; 125 g ai/ha): 0
Plant response rating, Kochia (kochia [10]; [14]): 0
Plant response rating, Kochia (kochia [10]; [17]): 50
Plant response rating, Sedge, Umbrella (sedge, umbrella): 90
Pigweed plant response rating (0 to 100 scale) (pigweed [11]; 31 g ai/ha): 10
Plant response rating, Pigweed (pigweed [11]; 125 g ai/ha): 60
Plant response rating, Pigweed (pigweed [12]; 31 g ai/ha): 50
Ragweed plant response rating (0 to 100 scale) (ragweed [13]; 31 g ai/ha): 0
Plant response rating, Ragweed (ragweed [13]; 125 g ai/ha): 0
Plant response rating, Ducksalad (Heteranthera limosa): 75
